Assay results: the supplement of paper PMC10627819

How the values were obtained:
[1] = tested on: S. aureus Newman; test: Bliss interaction score (quartile over a dose matrix) (fitness difference); higher = more antagonism (negative = synergy)
How it was run: (§1)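 Fitness was OD595 at entry into stationary phase divided by the plate's robust no-drug mean and capped at 1; single-drug fitness was inferred from combination data. The Bliss score is observed minus expected (product) fitness, summarised by quartiles over technical, biological and donor/recipient replicates.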

[2] = tested on: S. aureus DSM 20231; test: as above
How it was run: as §1

[3] = tested on: S. pneumoniae D39V; test: as above
How it was run: as §1

[4] = tested on: B. subtilis 168; test: as above
How it was run: as §1

[5] = tested on: S. aureus DSM 20231; test: fitness (endpoint OD595 vs no drug) (fraction); higher = more growth
How it was run: (§2)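 With the first reading as background, OD595 was measured every 30 min for 14 h in 384-well plates kept at 37 °C and inoculated at OD595 0.01. TSB, LB Lennox or CY was the medium. Fitness is the optical density at the transition into stationary phase divided by the robust mean of no-drug control wells, with a cap of 1.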

[6] = tested on: S. pneumoniae D39V; test: as above
How it was run: as §2

[7] = tested on: S. aureus Newman; test: as above
How it was run: as §2
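Wherever Bliss interaction score (quartile over a dose matrix) is given: first quartile when negative (synergy) and third quartile when positive (antagonism).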

CC1(C)S[C@@H]2[C@H](NC(=O)[C@H](N)c3ccc(O)cc3)C(=O)N2[C@H]1C(=O)O [Amoxicillin] + CC(=O)NC[C@H]1CN(c2ccc(N3CCOCC3)c(F)c2)C(=O)O1 [Linezolid]
Settings	Bliss interaction score
[1]	-0.0532
[2]	0.0353
[3]	0.225
[4]	-0.0837

Settings	fitness
[5], first compound 0.0625 µg/mL, partner 0.125 µg/mL	0.652
[5], first compound 0.0625 µg/mL, partner 0.25 µg/mL	0.427
[5], first compound 0.0625 µg/mL, partner 0.5 µg/mL	0.161
[5], first compound 0.125 µg/mL, partner 0.125 µg/mL	0.368
[5], first compound 0.125 µg/mL, partner 0.25 µg/mL	0.292
[5], first compound 0.125 µg/mL, partner 0.5 µg/mL	0.0966
[5], first compound 0.25 µg/mL, partner 0.125 µg/mL	0.129
[5], first compound 0.25 µg/mL, partner 0.25 µg/mL	0.0329
[5], first compound 0.25 µg/mL, partner 0.5 µg/mL	0.0469
[6], first compound 0.0008 µg/mL, partner 0.105 µg/mL	0.877
[6], first compound 0.0008 µg/mL, partner 0.21 µg/mL	0.724
[6], first compound 0.0008 µg/mL, partner 0.42 µg/mL	0.592
[6], first compound 0.0015 µg/mL, partner 0.105 µg/mL	0.84
[6], first compound 0.0015 µg/mL, partner 0.2 µg/mL	0.885
[6], first compound 0.0015 µg/mL, partner 0.21 µg/mL	0.784
[6], first compound 0.0015 µg/mL, partner 0.4 µg/mL	0.523
[6], first compound 0.0015 µg/mL, partner 0.42 µg/mL	0.578
[6], first compound 0.0015 µg/mL, partner 0.8 µg/mL	0.377
[6], first compound 0.003 µg/mL, partner 0.105 µg/mL	0.811
[6], first compound 0.003 µg/mL, partner 0.2 µg/mL	0.832
[6], first compound 0.003 µg/mL, partner 0.21 µg/mL	0.72
[6], first compound 0.003 µg/mL, partner 0.4 µg/mL	0.57
[6], first compound 0.003 µg/mL, partner 0.42 µg/mL	0.507
[6], first compound 0.003 µg/mL, partner 0.8 µg/mL	0.39

one replicate
Settings	fitness
[5], first compound 0.0625 µg/mL, partner 1 µg/mL	0.0145
[5], first compound 0.125 µg/mL, partner 1 µg/mL	0.012
[5], first compound 0.25 µg/mL, partner 1 µg/mL	0.0104
[5], first compound 0.5 µg/mL, partner 0.125 µg/mL	0.0313
[5], first compound 0.5 µg/mL, partner 0.25 µg/mL	0.0362
[5], first compound 0.5 µg/mL, partner 0.5 µg/mL	0.032
[6], first compound 0.0008 µg/mL, partner 0.2 µg/mL	0.875
[6], first compound 0.0008 µg/mL, partner 0.4 µg/mL	0.648
[6], first compound 0.0008 µg/mL, partner 0.8 µg/mL	0.419
[6], first compound 0.006 µg/mL, partner 0.2 µg/mL	0.532
[6], first compound 0.006 µg/mL, partner 0.4 µg/mL	0.359
[6], first compound 0.006 µg/mL, partner 0.8 µg/mL	0.212

CC1(C)S[C@@H]2[C@H](NC(=O)[C@H](N)c3ccc(O)cc3)C(=O)N2[C@H]1C(=O)O [Amoxicillin] + CCC[C@@H]1C[C@@H](C(=O)N[C@@H]([C@H]2O[C@H](SC)[C@H](O)[C@@H](O)[C@H]2O)[C@@H](C)O)N(C)C1 [Lincomycin]
Settings	Bliss interaction score
[1]	0.117
[2]	-0.0436
[3]	0.227
[4]	-0.0381

fitness
Settings	partner 0.1 µg/mL	partner 0.2 µg/mL	partner 0.215 µg/mL	partner 0.4 µg/mL	partner 0.43 µg/mL	partner 0.8 µg/mL	partner 0.86 µg/mL
[5], first compound 0.0625 µg/mL	0.624	0.492	–	0.213	–	–	–
[5], first compound 0.125 µg/mL	–	0.358	–	0.129	–	–	–
[5], first compound 0.25 µg/mL	0.0334	0.0486	–	0.064	–	–	–
[5], first compound 0.5 µg/mL	0.0005	0.0261	–	0.0105	–	–	–
[6], first compound 0.0008 µg/mL	–	–	0.838	–	0.739	–	0.409
[6], first compound 0.0015 µg/mL	–	0.847	0.878	0.54	0.744	0.312	0.437
[6], first compound 0.003 µg/mL	–	0.816	0.852	0.554	0.744	0.337	0.477

fitness, [6], one replicate
Settings	partner 0.2 µg/mL	partner 0.4 µg/mL	partner 0.8 µg/mL
first compound 0.0008 µg/mL	0.878	0.489	0.393
first compound 0.006 µg/mL	0.484	0.216	0.143

CC1(C)S[C@@H]2[C@H](NC(=O)[C@H](N)c3ccc(O)cc3)C(=O)N2[C@H]1C(=O)O [Amoxicillin] + CC[C@H](C)[C@H](N)C1=N[C@H](C(=O)N[C@@H](CC(C)C)C(=O)N[C@H](CCC(=O)O)C(=O)N[C@H](C(=O)N[C@H]2CCCCNC(=O)[C@H](CC(N)=O)NC(=O)[C@@H](CC(=O)O)NC(=O)[C@H](Cc3cnc[nH]3)NC(=O)[C@@H](Cc3ccccc3)NC(=O)[C@H]([C@@H](C)CC)NC(=O)[C@@H](CCCN)NC2=O)[C@@H](C)CC)CS1 [Bacitracin]
main component drawn
Settings	Bliss interaction score
[1]	0.0659
[2]	-0.0167
[3]	0.104
[4]	-0.101

[7], partner 75 µg/mL, main component drawn
Settings	fitness
first compound 0.0625 µg/mL	0.0143
first compound 0.125 µg/mL	0.0081
first compound 0.25 µg/mL	0.0047

CC1(C)S[C@@H]2[C@H](NC(=O)[C@H](N)c3ccc(O)cc3)C(=O)N2[C@H]1C(=O)O [Amoxicillin] + CO/N=C(\C(=O)N[C@@H]1C(=O)N2C(C(=O)O)=C(COC(N)=O)CS[C@H]12)c1ccco1 [Cefuroxime]
Settings	Bliss interaction score
[1]	0.097
[2]	-0.127
[3]	0.0491
[4]	0.0792

fitness, [7], one replicate
Settings	first compound 0.0625 µg/mL	first compound 0.125 µg/mL	first compound 0.25 µg/mL
partner 0.04875 µg/mL	0.944	0.932	0.841
partner 0.0975 µg/mL	0.895	0.804	0.747
partner 0.195 µg/mL	0.895	0.805	0.772

CC1(C)S[C@@H]2[C@H](NC(=O)[C@H](N)c3ccc(O)cc3)C(=O)N2[C@H]1C(=O)O [Amoxicillin] + COc1cc(Cc2cnc(N)nc2N)cc(OC)c1OC [Trimethoprim]
Settings	Bliss interaction score
[1]	0.0661
[2]	-0.0714
[3]	0.174
[4]	-0.139

fitness, [5]
Settings	partner 0.125 µg/mL	partner 0.25 µg/mL	partner 0.5 µg/mL	partner 1 µg/mL
first compound 0.0625 µg/mL	0.511	0.401	0.0356	0.0213
first compound 0.125 µg/mL	0.189	0.11	0.0261	0.0335
first compound 0.25 µg/mL	0.0479	0.037	0.033	0.0125

[5], first compound 0.5 µg/mL, one replicate
Settings	fitness
partner 0.125 µg/mL	0.0327
partner 0.25 µg/mL	0.0355
partner 0.5 µg/mL	0.0427

CO/N=C(\C(=O)N[C@@H]1C(=O)N2C(C(=O)[O-])=C(C[N+]3(C)CCCC3)CS[C@H]12)c1csc(N)n1 [Cefepime] + CC(=O)NC[C@H]1CN(c2ccc(N3CCOCC3)c(F)c2)C(=O)O1 [Linezolid]
Settings	Bliss interaction score
[1]	0.0424
[2]	0.11
[3]	0.165
[4]	0.0847

Settings	fitness
[5], first compound 0.125 µg/mL, partner 0.125 µg/mL	0.843
[5], first compound 0.125 µg/mL, partner 0.25 µg/mL	0.625
[5], first compound 0.125 µg/mL, partner 0.5 µg/mL	0.287
[5], first compound 0.25 µg/mL, partner 0.125 µg/mL	0.956
[5], first compound 0.25 µg/mL, partner 0.25 µg/mL	0.655
[5], first compound 0.25 µg/mL, partner 0.5 µg/mL	0.375
[5], first compound 0.5 µg/mL, partner 0.125 µg/mL	0.903
[5], first compound 0.5 µg/mL, partner 0.25 µg/mL	0.669
[5], first compound 0.5 µg/mL, partner 0.5 µg/mL	0.322
[6], first compound 0.007 µg/mL, partner 0.2 µg/mL	0.827
[6], first compound 0.007 µg/mL, partner 0.4 µg/mL	0.567
[6], first compound 0.007 µg/mL, partner 0.8 µg/mL	0.253
[6], first compound 0.0078 µg/mL, partner 0.105 µg/mL	0.934
[6], first compound 0.0078 µg/mL, partner 0.21 µg/mL	0.825
[6], first compound 0.0078 µg/mL, partner 0.42 µg/mL	0.692
[6], first compound 0.014 µg/mL, partner 0.2 µg/mL	0.797
[6], first compound 0.014 µg/mL, partner 0.4 µg/mL	0.573
[6], first compound 0.014 µg/mL, partner 0.8 µg/mL	0.259
[6], first compound 0.0155 µg/mL, partner 0.105 µg/mL	0.912
[6], first compound 0.0155 µg/mL, partner 0.21 µg/mL	0.796
[6], first compound 0.0155 µg/mL, partner 0.42 µg/mL	0.608
[6], first compound 0.028 µg/mL, partner 0.2 µg/mL	0.751
[6], first compound 0.028 µg/mL, partner 0.4 µg/mL	0.512
[6], first compound 0.028 µg/mL, partner 0.8 µg/mL	0.244
[6], first compound 0.031 µg/mL, partner 0.105 µg/mL	0.645
[6], first compound 0.031 µg/mL, partner 0.21 µg/mL	0.504
[6], first compound 0.031 µg/mL, partner 0.42 µg/mL	0.258

[5], partner 1 µg/mL, one replicate
Settings	fitness
first compound 0.125 µg/mL	0.0467
first compound 0.25 µg/mL	0.0593
first compound 0.5 µg/mL	0.052
